Test results from ChEMBL document CHEMBL1153042, “Fatty acid amide hydrolase inhibitors. Surprising selectivity of chiral azetidine ureas” (Bioorg Med Chem Lett, 2009).
pIC50, pKi: −log10 of the molar value.

Key:
[1] = target: T1, Fatty-acid amide hydrolase 1 (Homo sapiens, UniProt O00519); test: Inhibition of human FAAH incubated 1 hr prior to addition of arachidonyl-amino-methyl-coumarin amide
T1 sequence (O00519 whole entry): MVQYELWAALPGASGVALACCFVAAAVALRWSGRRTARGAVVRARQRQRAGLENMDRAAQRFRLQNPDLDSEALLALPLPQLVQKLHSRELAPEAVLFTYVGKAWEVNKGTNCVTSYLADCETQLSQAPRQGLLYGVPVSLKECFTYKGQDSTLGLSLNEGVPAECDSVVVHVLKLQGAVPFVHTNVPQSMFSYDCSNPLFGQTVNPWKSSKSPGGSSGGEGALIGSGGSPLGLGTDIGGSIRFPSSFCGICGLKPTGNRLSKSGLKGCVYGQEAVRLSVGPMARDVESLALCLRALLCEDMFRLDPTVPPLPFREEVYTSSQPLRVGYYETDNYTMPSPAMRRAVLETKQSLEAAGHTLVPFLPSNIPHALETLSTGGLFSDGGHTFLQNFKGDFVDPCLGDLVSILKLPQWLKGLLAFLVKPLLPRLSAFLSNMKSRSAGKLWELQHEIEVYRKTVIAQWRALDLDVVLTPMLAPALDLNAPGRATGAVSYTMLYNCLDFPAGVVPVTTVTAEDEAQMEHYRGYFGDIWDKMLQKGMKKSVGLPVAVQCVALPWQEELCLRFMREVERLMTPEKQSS

[2] = target: T1, Fatty-acid amide hydrolase 1; test: Inhibition of human FAAH incubated 3 hrs prior to addition of arachidonyl-amino-methyl-coumarin amide
Cannabinoid receptor 1 = Cannabinoid receptor 1 (Homo sapiens, UniProt P21554); test: Displacement of [3H]SR141716A from human CB1 receptor
Chain of Cannabinoid receptor 1 (P21554 whole entry): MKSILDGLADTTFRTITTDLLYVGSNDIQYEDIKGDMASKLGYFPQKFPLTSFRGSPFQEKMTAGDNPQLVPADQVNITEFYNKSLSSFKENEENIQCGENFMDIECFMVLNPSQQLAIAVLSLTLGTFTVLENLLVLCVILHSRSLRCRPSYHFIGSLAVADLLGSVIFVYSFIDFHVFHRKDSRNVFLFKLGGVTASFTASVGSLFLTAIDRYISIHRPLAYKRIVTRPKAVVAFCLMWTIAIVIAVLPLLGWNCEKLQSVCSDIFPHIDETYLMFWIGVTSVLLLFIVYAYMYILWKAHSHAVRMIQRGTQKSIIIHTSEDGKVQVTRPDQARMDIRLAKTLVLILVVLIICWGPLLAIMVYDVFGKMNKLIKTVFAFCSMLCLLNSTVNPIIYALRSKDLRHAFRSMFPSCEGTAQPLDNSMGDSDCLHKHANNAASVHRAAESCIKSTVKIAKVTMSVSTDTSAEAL

[3] = target: T2, Fatty-acid amide hydrolase 1 (Rattus norvegicus, UniProt P97612); test: Inhibition of rat FAAH incubated 3 hrs prior to addition of arachidonyl-amino-methyl-coumarin amide
T2 sequence (P97612 whole entry): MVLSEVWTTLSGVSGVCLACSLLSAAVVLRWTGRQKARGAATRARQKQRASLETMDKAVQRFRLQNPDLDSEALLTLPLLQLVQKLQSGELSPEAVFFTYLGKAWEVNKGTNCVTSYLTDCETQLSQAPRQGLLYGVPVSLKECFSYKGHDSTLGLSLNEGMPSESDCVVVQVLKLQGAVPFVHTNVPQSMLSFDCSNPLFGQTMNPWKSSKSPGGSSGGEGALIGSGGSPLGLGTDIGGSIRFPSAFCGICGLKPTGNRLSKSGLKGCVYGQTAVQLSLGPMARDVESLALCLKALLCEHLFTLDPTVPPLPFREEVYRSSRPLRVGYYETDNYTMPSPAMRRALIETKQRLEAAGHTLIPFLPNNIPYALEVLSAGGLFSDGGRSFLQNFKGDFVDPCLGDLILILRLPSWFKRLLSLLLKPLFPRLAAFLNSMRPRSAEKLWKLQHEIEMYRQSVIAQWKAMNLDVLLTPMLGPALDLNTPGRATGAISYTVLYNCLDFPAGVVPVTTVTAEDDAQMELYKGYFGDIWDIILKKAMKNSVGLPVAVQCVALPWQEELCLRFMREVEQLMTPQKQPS

Cannabinoid receptor 2 = Cannabinoid receptor 2 (Homo sapiens, UniProt P34972); test: Displacement of [3H]CP-55940 from human CB2 receptor
Chain of Cannabinoid receptor 2 (P34972 whole entry): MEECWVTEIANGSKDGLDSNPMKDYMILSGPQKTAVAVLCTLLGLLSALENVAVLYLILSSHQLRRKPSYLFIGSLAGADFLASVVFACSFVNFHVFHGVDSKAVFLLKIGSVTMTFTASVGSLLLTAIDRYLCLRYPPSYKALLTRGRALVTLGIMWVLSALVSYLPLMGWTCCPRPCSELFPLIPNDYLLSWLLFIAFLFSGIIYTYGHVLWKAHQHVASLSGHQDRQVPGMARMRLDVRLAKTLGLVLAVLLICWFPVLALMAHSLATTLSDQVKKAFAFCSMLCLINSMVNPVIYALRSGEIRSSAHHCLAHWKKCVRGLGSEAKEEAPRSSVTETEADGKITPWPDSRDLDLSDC

[4] = target: T2, Fatty-acid amide hydrolase 1; test: Inhibition of rat FAAH incubated 1 hr prior to addition of arachidonyl-amino-methyl-coumarin amide

Structure (SMILES)	pIC50 [1]	pIC50 [2]	pKi (Cannabinoid receptor 1)	pIC50 [3]	pKi (Cannabinoid receptor 2)	pIC50 [4]
O=C(N1CCCCC1)N1CC(OC(c2ccc(Cl)cc2)c2cccnc2Cl)C1 (racemic)	6.54	6.73	> 8.00			
O=C(N1CCCCC1)N1CC(O[C@H](c2ccc(Cl)cc2)c2cccnc2Cl)C1	< 5.00	< 5.00	> 8.00	< 5.00	4.96	< 5.00
O=C(N1CCCCC1)N1CC(O[C@@H](c2ccc(Cl)cc2)c2cccnc2Cl)C1	6.85	7.11	6.25	6.27	5.14	5.99
